# From patent US11839613B2, “Pyrimidine derivatives as PGE2 receptor modulators” (IDORSIA PHARMACEUTICALS LTD, priority 2017, dated 2023)
# How the values were obtained:
# PTGER4 (EP4) = PTGER4 (EP4) (Homo sapiens (Human), UniProt P35408); assay: cell-based
# From the text: The system is based on the Enzyme Fragment Complementation Technology. Two complementing fragments of the b-galactosidase enzyme are expressed within stably transfected cells. The larger portion of b-gal, termed EA for Enzyme Acceptor, is fused to the C-terminus of b-arrestin 2. The smaller fragment, termed ProLink™ tag, is fused to PTGER2 (EP2) or PTRGER4 (EP4) at the C-terminus. Upon activation, b-arrestin is recruited which forces the interaction of ProLink and EA, allowing complementation of the two fragments of b-gal and the formation of a functional enzyme which is capable of hydrolysing the substrate and generating a chemiluminescent signal.
# Plate is incubated at 37° C., 5% CO2 for 24 hours.
# Stock solutions of test compounds are made at a concentration of 10 mM in DMSO, and serially diluted in DMSO to concentrations required for inhibition dose response curves (tested concentration range 10 μM-2 nM or 1 μM-0.2 nM).
# Five microliters of diluted compounds are transferred into the assay plate. Plate is pre-incubated 15 minutes at 37° C. Then five microliters of PGE2 (final conc. 20 nM) are transferred into the assay plate. Plate is incubated 120 minutes at 37° C.
# Twelve I of reagent are transferred to the assay plate and incubate for 1 hour at RT in the dark. Luminescence counts are read on a BMG Fluostar Optima reader according to manufacturer's instructions.
# For each compound concentration calculate of the percentage of activity compared to DMSO control value as average ±STDEV. (each concentration is measured in duplicate)
# PTGER2 (EP2) = PTGER2 (EP2) (Homo sapiens (Human), UniProt P43116); assay: hEP2 b-arrestin assay (PathHunter HEK 293 PTGER2 b-arrestin cells); type: cell-based; conditions: antagonistic activity, beta-arrestin assay; read-out: hEP2 b-arr IC50
# Procedure: Plate is pre-incubated 15 minutes at 37° C. Then five microliters of PGE2 (final conc. 5 μM) are transferred into the assay plate. Plate is incubated 120 minutes at 37° C.
# (each concentration is measured in duplicate)
# Chain of PTGER4 (EP4) (P35408 whole entry): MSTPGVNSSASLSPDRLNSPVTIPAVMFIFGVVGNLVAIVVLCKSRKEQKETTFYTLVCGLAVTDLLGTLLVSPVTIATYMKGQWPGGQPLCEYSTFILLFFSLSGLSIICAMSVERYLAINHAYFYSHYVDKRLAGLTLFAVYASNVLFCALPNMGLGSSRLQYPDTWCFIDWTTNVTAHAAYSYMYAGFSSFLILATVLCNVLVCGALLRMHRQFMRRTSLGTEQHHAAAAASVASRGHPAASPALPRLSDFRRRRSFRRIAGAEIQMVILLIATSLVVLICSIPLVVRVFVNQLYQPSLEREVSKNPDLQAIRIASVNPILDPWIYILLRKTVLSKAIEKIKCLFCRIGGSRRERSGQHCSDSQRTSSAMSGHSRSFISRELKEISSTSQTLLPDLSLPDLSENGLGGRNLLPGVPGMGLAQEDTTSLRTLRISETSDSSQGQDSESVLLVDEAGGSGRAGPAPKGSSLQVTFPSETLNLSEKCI
# Chain of PTGER2 (EP2) (P43116 whole entry): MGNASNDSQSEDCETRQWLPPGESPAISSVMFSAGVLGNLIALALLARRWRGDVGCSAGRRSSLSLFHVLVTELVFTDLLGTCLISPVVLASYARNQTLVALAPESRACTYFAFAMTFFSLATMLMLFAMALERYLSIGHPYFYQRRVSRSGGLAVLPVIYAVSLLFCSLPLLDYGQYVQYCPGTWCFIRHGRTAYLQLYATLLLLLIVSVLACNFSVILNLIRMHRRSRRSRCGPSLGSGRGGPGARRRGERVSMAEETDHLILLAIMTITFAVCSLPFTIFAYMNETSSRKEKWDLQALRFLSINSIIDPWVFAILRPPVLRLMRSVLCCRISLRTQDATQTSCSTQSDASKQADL
compound,measurement,setting,value
"CCCc1cc(-c2cc(NCCc3cc4c(cc3OCC)OCCO4)ncn2)ccc1CC(=O)O [Example 402, (4-{6-[2-(7-Ethoxy-2,3-dihydro-benzo[1,4]dioxin-6-yl)-ethylamino]-pyrimidin-4-yl}-2-propyl-phenyl)-acetic acid]",IC50,PTGER4 (EP4),61 nM
same,IC50,PTGER2 (EP2),22 nM
"O=C(O)c1ccc(-c2cc(NCCc3cc4c(cc3OC(F)F)OCCO4)ncn2)cc1OC1CCC1 [Example 494, 2-Cyclobutoxy-4-{6-[2-(7-difluoromethoxy-2,3-dihydro-benzo[1,4]dioxin-6-yl)-ethylamino]-pyrimidin-4-yl}-benzoic acid]",IC50,PTGER4 (EP4),209 nM
same,IC50,PTGER2 (EP2),340 nM
"Cc1c(CCNc2cc(-c3ccc(CC(=O)O)c(OC(F)F)c3)ncn2)ccc2c1OCCO2 [Example 511, (2-Difluoromethoxy-4-{6-[2-(5-methyl-2,3-dihydro-benzo[1,4]dioxin-6-yl)-ethylamino]-pyrimidin-4-yl}-phenyl)-acetic acid]",IC50,PTGER4 (EP4),423 nM
same,IC50,PTGER2 (EP2),304 nM
"C#Cc1cc2c(cc1CCNc1cc(-c3ccc(CC(=O)O)c(OC)c3)ncn1)OCCO2 [Example 503, (4-{6-[2-(7-Ethynyl-2,3-dihydro-benzo[1,4]dioxin-6-yl)-ethylamino]-pyrimidin-4-yl}-2-methoxy-phenyl)-acetic acid]",IC50,PTGER4 (EP4),157 nM
same,IC50,PTGER2 (EP2),102 nM
"O=C(O)Cc1ccc(-c2cc(NCCc3ccc4scc(Cl)c4c3)ncn2)cc1OC(F)(F)F [Example 499, (4-{6-[2-(3-Chloro-benzo[b]thiophen-5-yl)-ethylamino]-pyrimidin-4-yl}-2-trifluoromethoxy-phenyl)-acetic acid]",IC50,PTGER4 (EP4),169 nM
same,IC50,PTGER2 (EP2),180 nM
"CCOc1cc(-c2cc(NCCc3cc(F)c4sccc4c3)ncn2)ccc1OCCC(=O)O [Example 422, 3-(2-Ethoxy-4-{6-[2-(7-fluoro-benzo[b]thiophen-5-yl)-ethylamino]-pyrimidin-4-yl}-phenoxy)-propionic acid]",IC50,PTGER4 (EP4),23 nM
same,IC50,PTGER2 (EP2),249 nM
"O=C(O)c1ccc(-c2cc(NCCc3cc(F)c4sccc4c3)ncn2)c2cc[nH]c12 [Example 558, 4-{6-[2-(7-Fluoro-benzo[b]thiophen-5-yl)-ethylamino]-pyrimidin-4-yl}-1H-indole-7-carboxylic acid]",IC50,PTGER4 (EP4),539 nM
same,IC50,PTGER2 (EP2),684 nM
"COc1cc(-c2cc(NCCc3cc(F)c4sccc4c3)ncn2)ccc1CC(=O)O [Example 475, (4-{6-[2-(7-Fluoro-benzo[b]thiophen-5-yl)-ethylamino]-pyrimidin-4-yl}-2-methoxy-phenyl)-acetic acid]",IC50,PTGER4 (EP4),62 nM
same,IC50,PTGER2 (EP2),663 nM
"CCOc1cc2c(cc1CCNc1cc(-c3ccc(C(=O)O)c(CC(C)C)c3)ncn1)OCCO2 [Example 417, 4-{6-[2-(7-Ethoxy-2,3-dihydro-benzo[1,4]dioxin-6-yl)-ethylamino]-pyrimidin-4-yl}-2-isobutyl-benzoic acid]",IC50,PTGER4 (EP4),174 nM
same,IC50,PTGER2 (EP2),38 nM
"COc1cc2c(cc1CCNc1cc(-c3ccc(CC(=O)O)c(C(F)(F)F)c3)ncn1)OCCO2 [Example 525, (4-{6-[2-(7-Methoxy-2,3-dihydro-benzo[1,4]dioxin-6-yl)-ethylamino]-pyrimidin-4-yl}-2-trifluoromethyl-phenyl)-acetic acid]",IC50,PTGER4 (EP4),349 nM
same,IC50,PTGER2 (EP2),160 nM
"CCOc1c(C(=O)O)ccc(-c2cc(NCCc3cc(F)c4sccc4c3)ncn2)c1F [Example 552, 2-Ethoxy-3-fluoro-4-{6-[2-(7-fluoro-benzo[b]thiophen-5-yl)-ethylamino]-pyrimidin-4-yl}-benzoic acid]",IC50,PTGER4 (EP4),385 nM
same,IC50,PTGER2 (EP2),577 nM
"CCCc1cc(-c2cc(NCCc3cc4ccsc4c(F)c3OC)ncn2)ccc1CC(=O)O [Example 486, (4-{6-[2-(7-Fluoro-6-methoxy-benzo[b]thiophen-5-yl)-ethylamino]-pyrimidin-4-yl}-2-propyl-phenyl)-acetic acid]",IC50,PTGER4 (EP4),136 nM
same,IC50,PTGER2 (EP2),95 nM
"CCOc1cc(-c2cc(NCCc3c(OC)cc4c(c3F)OCCO4)ncn2)ccc1C(=O)O [Example 435, 2-Ethoxy-4-{6-[2-(5-fluoro-7-methoxy-2,3-dihydro-benzo[1,4]dioxin-6-yl)-ethylamino]-pyrimidin-4-yl}-benzoic acid]",IC50,PTGER4 (EP4),110 nM
same,IC50,PTGER2 (EP2),46 nM
"COc1cc(-c2cc(NCCc3ccc4c(c3C)OCCO4)ncn2)ccc1OCCC(=O)O [Example 507, 3-(2-Methoxy-4-{6-[2-(5-methyl-2,3-dihydro-benzo[1,4]dioxin-6-yl)-ethylamino]-pyrimidin-4-yl}-phenoxy)-propionic acid]",IC50,PTGER4 (EP4),209 nM
same,IC50,PTGER2 (EP2),170 nM
"O=C(O)c1ccc(-c2cc(NCCc3ccc4sccc4c3F)ncn2)cc1OC1CCC1 [Example 366, 2-Cyclobutoxy-4-{6-[2-(4-fluoro-benzo[b]thiophen-5-yl)-ethylamino]-pyrimidin-4-yl}-benzoic acid]",IC50,PTGER4 (EP4),119 nM
same,IC50,PTGER2 (EP2),84 nM
"Cc1cc(-c2cc(NCCc3cc(F)c4sccc4c3)ncn2)ccc1CC(=O)O [Example 544, (4-{6-[2-(7-Fluoro-benzo[b]thiophen-5-yl)-ethylamino]-pyrimidin-4-yl}-2-methyl-phenyl)-acetic acid]",IC50,PTGER4 (EP4),452 nM
same,IC50,PTGER2 (EP2),851 nM
"CSc1cc(-c2cc(NCCc3ccc4scc(Cl)c4c3)ncn2)ccc1C(=O)O [Example 429, 4-{6-[2-(3-Chloro-benzo[b]thiophen-5-yl)-ethylamino]-pyrimidin-4-yl}-2-methylsulfanyl-benzoic acid]",IC50,PTGER4 (EP4),60 nM
same,IC50,PTGER2 (EP2),52 nM
"CCCc1cc(-c2cc(NCCc3ccc4scc(Cl)c4c3)ncn2)ccc1CC(=O)O [Example 498, (4-{6-[2-(3-Chloro-benzo[b]thiophen-5-yl)-ethylamino]-pyrimidin-4-yl}-2-propyl-phenyl)-acetic acid]",IC50,PTGER4 (EP4),107 nM
same,IC50,PTGER2 (EP2),163 nM
"Cc1c(CCNc2cc(-c3ccc(C(=O)O)c(OC4CC4)c3)ncn2)ccc2c1OCCO2 [Example 519, 2-Cyclopropoxy-4-{6-[2-(5-methyl-2,3-dihydro-benzo[1,4]dioxin-6-yl)-ethylamino]-pyrimidin-4-yl}-benzoic acid]",IC50,PTGER4 (EP4),262 nM
same,IC50,PTGER2 (EP2),19 nM
"CCOc1cc2c(cc1CCNc1cc(-c3ccc(CC(=O)O)c(OC(C)C)c3)ncn1)OCCO2 [Example 425, (4-{6-[2-(7-Ethoxy-2,3-dihydro-benzo[1,4]dioxin-6-yl)-ethylamino]-pyrimidin-4-yl}-2-isopropoxy-phenyl)-acetic acid]",IC50,PTGER4 (EP4),152 nM
same,IC50,PTGER2 (EP2),65 nM
"CCOc1cc(-c2cc(NCCc3ccc4scc(Cl)c4c3)ncn2)ccc1CC(=O)O [Example 431, (4-{6-[2-(3-Chloro-benzo[b]thiophen-5-yl)-ethylamino]-pyrimidin-4-yl}-2-ethoxy-phenyl)-acetic acid]",IC50,PTGER4 (EP4),52 nM
same,IC50,PTGER2 (EP2),179 nM
"COc1cc2c(cc1CCNc1cc(-c3ccc(C(=O)O)c(OC(C)C)c3)ncn1)OCCO2 [Example 493, 2-Isopropoxy-4-{6-[2-(7-methoxy-2,3-dihydro-benzo[1,4]dioxin-6-yl)-ethylamino]-pyrimidin-4-yl}-benzoic acid]",IC50,PTGER4 (EP4),497 nM
same,IC50,PTGER2 (EP2),642 nM
"CCCc1cc(-c2cc(NCCc3cc4c(cc3OCC)OCCO4)ncn2)ccc1C(C)C(=O)O (racemic) [Example 487, rac-2-(4-{6-[2-(7-Ethoxy-2,3-dihydro-benzo[1,4]dioxin-6-yl)-ethylamino]-pyrimidin-4-yl}-2-propyl-phenyl)-propionic acid]",IC50,PTGER4 (EP4),136 nM
same,IC50,PTGER2 (EP2),59 nM
"Cc1cc(-c2cc(NCCc3cc(F)c4sccc4c3)ncn2)cc(Cl)c1CC(=O)O [Example 546, (2-Chloro-4-{6-[2-(7-fluoro-benzo[b]thiophen-5-yl)-ethylamino]-pyrimidin-4-yl}-6-methyl-phenyl)-acetic acid]",IC50,PTGER4 (EP4),166 nM
same,IC50,PTGER2 (EP2),980 nM
"COc1c(CCNc2cc(-c3ccc(C(=O)O)c(CC(C)C)c3)ncn2)cc2ccsc2c1F [Example 415, 4-{6-[2-(7-Fluoro-6-methoxy-benzo[b]thiophen-5-yl)-ethylamino]-pyrimidin-4-yl}-2-isobutyl-benzoic acid]",IC50,PTGER4 (EP4),52 nM
same,IC50,PTGER2 (EP2),63 nM
"CCCc1cc(-c2cc(NCCc3cc4ccsc4c(F)c3OC)ncn2)ccc1C(=O)O [Example 483, 4-{6-[2-(7-Fluoro-6-methoxy-benzo[b]thiophen-5-yl)-ethylamino]-pyrimidin-4-yl}-2-propyl-benzoic acid]",IC50,PTGER4 (EP4),115 nM
same,IC50,PTGER2 (EP2),26 nM
"CCOc1cc(-c2cc(NCCc3cc4c(cc3OC(F)F)OCCO4)ncn2)sc1C(=O)O [Example 433, 5-{6-[2-(7-Difluoromethoxy-2,3-dihydro-benzo[1,4]dioxin-6-yl)-ethylamino}-pyrimidin-4-yl}-3-ethoxy-thiophene-2-carboxylic acid]",IC50,PTGER4 (EP4),19 nM
same,IC50,PTGER2 (EP2),30 nM
"CCOc1cc(-c2cc(NCCc3ccc4ccccc4c3C)ncn2)ccc1Cc1noc(=S)[nH]1 [Example 567, 3-(2-Ethoxy-4-{6-[2-(1-methyl-naphthalen-2-yl)-ethylamino]-pyrimidin-4-yl}-benzyl)-[1,2,4]oxadiazole-5(4H)-thione]",IC50,PTGER4 (EP4),264 nM
same,IC50,PTGER2 (EP2),255 nM
"CCCc1cc(-c2cc(NCCc3cc(F)c4sccc4c3)ncn2)cc(OCC)c1C(=O)O [Example 551, 2-Ethoxy-4-{6-[2-(7-fluoro-benzo[b]thiophen-5-yl)-ethylamino]-pyrimidin-4-yl}-6-propyl-benzoic acid]",IC50,PTGER4 (EP4),867 nM
same,IC50,PTGER2 (EP2),900 nM
"CC(C)Cc1cc(-c2cc(NCCc3ccc4sccc4c3F)ncn2)ccc1C(=O)O [Example 413, 4-{6-[2-(4-Fluoro-benzo[b]thiophen-5-yl)-ethylamino]-pyrimidin-4-yl}-2-isobutyl-benzoic acid]",IC50,PTGER4 (EP4),41 nM
same,IC50,PTGER2 (EP2),62 nM
"CCCc1cc(-c2cc(NCCc3ccc4c(c3C)OCCO4)ncn2)ccc1CC(=O)O [Example 504, (4-{6-[2-(5-Methyl-2,3-dihydro-benzo[1,4]dioxin-6-yl)-ethylamino]-pyrimidin-4-yl}-2-propyl-phenyl)-acetic acid]",IC50,PTGER4 (EP4),167 nM
same,IC50,PTGER2 (EP2),108 nM
